In brackets after ≈: the same amount, converted by molar mass. Read-outs that look alike come from different tables or passages of the source.
Assays:
Ehrlich solid tumor = test: In vivo activity in Ehrlich solid tumor model; parameters: species or system swiss mice; conditions: for % Tumor Growth Inhibition: day 13 vs saline control; for Mortality: dead/group size
Description: Ehrlich ascites carcinoma (EAC) cells were collected from the peritoneal cavity of the swiss mice (animal house of IIIM registered eith CPCSEA; registration no. 67/99/CPCSEA) weighing 18-23 gm, harbouring 8-10 days old ascitic tumor. 1×10^7 EAC cells were injected intramuscularly in the right thigh of 38 swiss male mice selected for the experiment on day 0. The next day, animals were randomized and divided into five groups. Four treatment groups contained 7 animals each and one control group contained 10 animals. Treatment was given as follows:
Group I: 1 (0.75 mg/kg, i/p) from day 1-9.
Group II: 1g (1 mg/kg, i/p) from day 1-9.
The third treatment group was treated with 5-fluorouracil (22 mg/kg, i/p) from day 1-9 and it served as positive control. The control group was similarly administered normal saline (0.2 ml, i/p) from day 1-9. On day 9 & 13, tumor bearing thigh of each animal was shaved and longest and shortest diameters of the tumor were measured with the help of vernier caliper. Tumor weight of each animal was calculated using the following formula.
The percent tumor growth inhibition was calculated on day 13 by comparing the average values of treated groups with that of control group. Tumor growth in saline treated control animals was taken to be 100%.

P-gp = P-gp induction assay, rhodamine123 (Rh123) cell exclusion method in LS-180 cells; conditions: for % intracellular accumulation of Rh123 in LS180 cells: compound 100 nM, decrease indicates P-gp induction; for % intracellular accumulation of Rh123 in LS180 cells / EC50: 48 h; for EC50: read-out: EC50, induction of P-gp, P-gp overexpressing LS-180 cells
Description: All synthesized compounds were screened for their ability to induce P-gp by using rhodamine123 (Rh123) cell exclusion method. In this method, the P-gp function was evaluated in terms of rhodamine 123 (Rh123) accumulation and efflux. Briefly, the protocol used is as follows: Colorectal LS-180 cells (ECACC type, purchased from Sigma, Cat. no. 87021202, cell passage no. 52) were seeded at a density of 2×10^4 per well of 96 well plate and were allowed to grow for next 24 h. Cells were further incubated with the test compounds, and were diluted to a final concentration of 100 nM and rifampicin (standard) to a final concentration of 10 μM in complete media for 48 h. The final concentration of DMSO was kept at 0.1%. Drugs were removed and cells were incubated with HANKS buffer for 40 minutes before further incubation with HANKS buffer (containing 10 μM of Rh123 as a P-gp substrate) for 90 minutes. At the end of Rh123 treatment cells were washed four times with cold PBS followed by cell lysis for 1 h by using 200 μl of lysis buffer (0.1% Triton X-100 and 0.2 N NaOH). A total of 100 μl of lysate was used for reading fluorescence of Rh123 at 485 nm/529 nm. Samples were normalized by dividing fluorescence of each sample with total protein present in the lysate. For EC50 determination, different concentrations of compound were used to treat LS180 cells for 48 h. EC50 was determined by plotting fluorescence of Rh123 against concentration of compound.

HCT-116 = test: Antiproliferative activity, MTT assay, HCT-116; type: cell-based, Human
Description: (§1) Human colon cancer cell lines HCT-116 (NCI, passage no. 5) and Colo-205 116 (NCI, passage no. 3) were procured from National Cancer Institute, USA. HCT-116 and Colo-205 cells were grown in McCoy's 5A and RPMI growth medium respectively containing 10% FCS, 100 U penicillin and […] per mL medium. Cells were grown in CO2 incubator (Thermocon Electron Corporation, Houston, Tex.) at 37° C. with 95% humidity and 5% CO2 gas environment. Cells treated with tested materials were dissolved in DMSO while the untreated control cultures received only the vehicle (DMSO<0.2%). Cells were seeded in 96 well plates and exposed to tested compounds at various concentrations for 48 h time interval. MTT dye (2.5 mg/ml in PBS) was added 4 hrs priors to experiment termination. The plates were then centrifuged at 1500 rpm for 15 min and the supernatant was discarded, and MTT formazan crystals were dissolved in 150 μl of DMSO. The OD measured at 570 nm with reference wavelength of 620 nm.
(§2) The percentages of cell viability and growth inhibition were calculated using formulas: […]

Colo-205 = test: Antiproliferative activity, MTT assay, Colo-205; type: cell-based; conditions: Homo sapiens, 48 h
Description: as §1, §2

[1] = test system: microtubules in HCT-116 cells; test: Effect of compounds on microtubules, confocal microscopy; type: cell-based, Human; conditions: 100 nM, 24 h, anti-α-tubulin staining, compared to control
Description: For detection of tubulins, HCT-116 cells (1×10^5 cells/well) were seeded on to 18 mm square cover slips in six well plates in complete medium. […] After the treatment period, cells were fixed in 4% paraformaldehyde for 10 min at room temperature and permeabilized using 0.5% Triton-X in PBS for 5 min. The cells were blocked with 10% goat serum for 20 min at room temperature. Microtubules were detected with a monoclonal α-tubulin antibody (Sigma, Catalogue number: T9026) diluted 1:100 in 0.1% Triton X-100 in PBS for 1 h at room temperature and Alexa Fluor 488 conjugated secondary antibody (Invitrogen) diluted 1:500 in PBS for 1 h at room temperature. Cells were then washed three times in PBS and stained with 4′,6-diamidino-2-phenylindole (DAPI 1 μg/ml in PBS). The cover slips were mounted over glass slides and cells were imaged by a laser scanning confocal microscope (Olympus Fluoview FV1000). The promising candidates identified through P-gp screening and antiproliferative screening were further studied for tubulin polymerization inhibition activity.

[2] = Thermodynamic equilibrium solubility; type: physicochemical; conditions: 25 °C, thermodynamic from solid, 25±1° C.
Description: The compounds were first dissolved in methanol to prepare stock solutions (100 and 1000 μg/mL). Different concentrations of stock solutions were pipetted into the 96-well plates and the solvent was evaporated to ensure that solid drug was present in the beginning of the experiment. Thereafter, 200 μl of the dissolution medium was added to the wells and 96-well plate was shaken horizontally at 300 rpm (Eppendorf Thermoblock Adapter, North America) for 4 h at room temperature (25±1° C.). The plates were kept overnight for equilibration of drug in medium. Later, the plates were centrifuged at 3000 rpm for 15 min (Jouan centrifuge BR4i). Supernatant (50 μl) was pipetted into UV 96-well plates (Corning® 96 Well Clear Flat Bottom UV-Transparent Microplate) for analyses with plate reader (SpectraMax Plus384) at λmax of 350 nm. The analyses were performed in triplicate for each compound. The solubility curve of concentration (μg/mL) vs absorbance was plotted to find out saturation point and the corresponding concentration was noted.

[3] = day 13, i/p day 1-9, 1 0.75 mg/kg, 1g 1 mg/kg, 5-fluorouracil 22 mg/kg
[4] = i/p day 1-9, 1 0.75 mg/kg, 1g 1 mg/kg, 5-fluorouracil 22 mg/kg
[5] = aqueous buffer, phosphate buffer saline, read-out: Solubility, PBS
[6] = fassgf or other biorelevant, simulated intestinal fluid, read-out: Solubility, SIF
[7] = simulated gastric fluid, read-out: Solubility, SGF
[8] = water, read-out: Solubility, Water

For `O=c1[nH]cc(F)c(=O)[nH]1` [5-Fluorouracil], the “Day 13 Avg. tumor weights” value (Ehrlich solid tumor; [3]) was 668.2 mg, the “% Tumor Growth Inhibition” value (Ehrlich solid tumor; [4]) was 54.78% and the Mortality (Ehrlich solid tumor; [4]) was 0/7.

In the case of `COc1cc2c(c(OC)c1OC)-c1ccc(N3CCNCC3)c(=O)cc1[C@@H](NC(C)=O)CC2` [Compound 1a, N-[(7S)-1,2,3-Trimethoxy-9-oxo-10-(piperazin-1-yl)-5,6,7,9-tetrahydrobenzo[a]heptalen-7-yl]acetamide], the “% intracellular accumulation of Rh123 in LS180 cells” value (P-gp; control = 100%) is reported as 90%, the IC50 (HCT-116; Homo sapiens, HCT-116, 48 h) is reported as > 10000 nM and the IC50 (Colo-205) is reported as 8000 nM. It also gave a melting point of 158 to 161 °C.

With `COc1cc2c(c(OC)c1OC)-c1ccc(N3CCC[C@@H]3CO)c(=O)cc1C(NC(C)=O)CC2` (stereo partly drawn) [Compound 1e, N-[(7S)-1,2,3-Trimethoxy-9-oxo-10-(L-prolinol-1-yl)-5,6,7,9-tetrahydrobenzo[a]heptalen-7-yl]acetamide] the IC50 (HCT-116; Homo sapiens, HCT-116, 48 h) was 10000 nM and the IC50 (Colo-205) was 8000 nM.

With `COc1cc2c(c(OC)c1OC)-c1ccc(OC)c(=O)cc1[C@@H](NC(C)=O)CC2` [Compound 1, Colchicine] the “% intracellular accumulation of Rh123 in LS180 cells” value (P-gp; control = 100%) was 62%, the EC50 (P-gp) was 14.4 nM and the “disruption of microtubule assembly” value [1] was “remarkable disruption and loss of microtubules”. The solubility [2, 5] was 800 µg/mL (≈ 2000 µM), the solubility [2, 6] was 800 µg/mL (≈ 2000 µM) and the solubility [2, 7] was 200 µg/mL (≈ 501 µM). For the same molecule, the solubility [2, 8] was > 1500 µg/mL, the “mortality, animals in the group of 7 animals” value (Ehrlich solid tumor; colchicine 0.75 mg/kg, i/p) was 2 animals and the “mortality, animals in the group of 7 animals” value (Ehrlich solid tumor; colchicine 1 mg/kg, i/p, text and footnote) was 5 animals. For the same molecule, the “Avg. body weights (g) of animal on days 1” value (Ehrlich solid tumor; day 1, i/p day 1-9, 1 0.75 mg/kg, 1g 1 mg/kg, 5-fluorouracil 22 mg/kg) was 22.28 g, the “Avg. body weights (g) of animal on days 5” value (Ehrlich solid tumor; day 5, i/p day 1-9, 1 0.75 mg/kg, 1g 1 mg/kg, 5-fluorouracil 22 mg/kg) was 21.42 g and the “Avg. body weights (g) of animal on days 9” value (Ehrlich solid tumor; day 9, i/p day 1-9, 1 0.75 mg/kg, 1g 1 mg/kg, 5-fluorouracil 22 mg/kg) was 20.2 g. For the same molecule, the “Day 13 Avg. body weights” value (Ehrlich solid tumor; [3]) was 19.25 g, the “Day 13 Avg. tumor weights” value (Ehrlich solid tumor; [3]) was 705.0 mg and the “% Tumor Growth Inhibition” value (Ehrlich solid tumor; [4]) was 52.29%. The Mortality (Ehrlich solid tumor; colchicine 1 mg/kg, i/p) was 5/7 and the Mortality (Ehrlich solid tumor; [4]) was 2/7.

In the case of `COc1cc2c(c(OC)c1OC)-c1ccc(N3CCC(N)CC3)c(=O)cc1[C@@H](NC(C)=O)CC2` [Compound 1b, N-[(7S)-1,2,3-Trimethoxy-9-oxo-10-(4-amino-piperidin-1-yl)-5,6,7,9-tetrahydrobenzo[a]heptalen-7-yl]acetamide], the “% intracellular accumulation of Rh123 in LS180 cells” value (P-gp; control = 100%) is reported as 90%, the IC50 (HCT-116; Homo sapiens, HCT-116, 48 h) is reported as 10000 nM and the IC50 (Colo-205) is reported as 5000 nM.

In the case of `COc1cc2c(c(OC)c1OC)-c1ccc(N3CCN(C(=O)OC(C)(C)C)CC3)c(=O)cc1C(NC(C)=O)CC2` [Compound 1c, N-[(7S)-1,2,3-Trimethoxy-9-oxo-10-(N-boc-piperazin-1-yl)-5,6,7,9-tetrahydrobenzo[a]heptalen-7-yl]acetamide], the IC50 (HCT-116; Homo sapiens, HCT-116, 48 h) is reported as 4000 nM and the IC50 (Colo-205) is reported as 3000 nM.

With `COc1cc2c(c(OC)c1OC)-c1ccc(N3CCc4c([nH]c5ccccc45)C3)c(=O)cc1[C@@H](NC(C)=O)CC2` [Compound 1f, N-[(7S)-1,2,3-Trimethoxy-9-oxo-10-(2,3,4,9-tetrahydro-1H-pyrido[3,4-b]indole-2-yl)-5,6,7,9-tetrahydrobenzo[a]heptalen-7-yl]acetamide] the “% intracellular accumulation of Rh123 in LS180 cells” value (P-gp; control = 100%) was 90%, the IC50 (HCT-116; Homo sapiens, HCT-116, 48 h) was 3000 nM and the IC50 (Colo-205) was 800 nM.

With `CO[C@H]1/C=C/O[C@@]2(C)Oc3c(C)c(O)c4c(O)c(c(/C=N/N5CCN(C)CC5)c(O)c4c3C2=O)NC(=O)/C(C)=C\C=C\[C@H](C)[C@H](O)[C@@H](C)[C@@H](O)[C@@H](C)[C@H](OC(C)=O)[C@@H]1C` [rifampicin, reference compound] the “% intracellular accumulation of Rh123” value (P-gp; rifampicin 10 μM, positive control, control = 100%) was 69%.

For `COc1cc2c(c(OC)c1OC)-c1ccc(N3CCC(c4ccccc4)CC3)c(=O)cc1C(NC(C)=O)CC2` [Compound 1d, N-[(7S)-1,2,3-Timethoxy-9-oxo-10-(4-phenyl-piperidin-1-yl)-5,6,7,9-tetrahydrobenzo[a]heptalen-7-yl]acetamide], the “% intracellular accumulation of Rh123 in LS180 cells” value (P-gp; control = 100%) was 90%, the EC50 (P-gp) was 29.6 nM and the IC50 (HCT-116; 48 h) was 1000 nM. For the same molecule, the IC50 (HCT-116; Homo sapiens, HCT-116, 48 h) was ≤ 1000 nM, the IC50 (Colo-205) was 800 nM and the solubility [2, 5] was 80 µg/mL (≈ 151 µM). For the same molecule, the solubility [2, 6] was 20 µg/mL (≈ 37.8 µM), the solubility [2, 7] was > 1500 µg/mL and the solubility [2, 8] was 80 µg/mL (≈ 151 µM).
